Assay: SP values (solubility parameter)
Format: physicochemical
Conditions: δ=(E/V)^1/2
Description: The SP value has the same meaning as the solubility parameter, and serves as a rough indication of mixing property between the liquids. If the cohesive energy is denoted by E and the molar volume by V, then the SP value δ is given by δ=(E/V)^1/2.

SP Value: 8.7
Structure (SMILES): CC(=O)CC(C)C [Methylisobutyl ketone]
